In ChEMBL document CHEMBL5385888, “Structure-based discovery of pyrazolamides as novel ERRγ inverse agonists” (Eur J Med Chem, 2023):
Active and inactive are the calls of the source. No cut-off for these calls is given here.

Biological target: T1, Estrogen-related receptor gamma (Mus musculus, UniProt P62509)
T1 sequence (P62509 whole entry): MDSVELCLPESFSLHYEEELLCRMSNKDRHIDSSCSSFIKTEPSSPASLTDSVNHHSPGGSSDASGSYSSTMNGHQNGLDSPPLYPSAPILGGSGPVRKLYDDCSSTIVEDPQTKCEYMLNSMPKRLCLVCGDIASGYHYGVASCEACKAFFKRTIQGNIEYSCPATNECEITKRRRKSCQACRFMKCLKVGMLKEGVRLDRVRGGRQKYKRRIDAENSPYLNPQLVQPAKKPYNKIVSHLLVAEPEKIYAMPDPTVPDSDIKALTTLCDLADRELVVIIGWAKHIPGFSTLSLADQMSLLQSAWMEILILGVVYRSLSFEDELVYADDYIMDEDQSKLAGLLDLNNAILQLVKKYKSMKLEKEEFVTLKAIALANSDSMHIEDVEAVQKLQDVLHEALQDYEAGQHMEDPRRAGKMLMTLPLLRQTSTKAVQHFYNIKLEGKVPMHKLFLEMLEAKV
Assay: Inverse agonist activity at Gal4-tagged mouse ERR-gamma LBD transfected in HEK293T cells co-expressing FR-luc assessed as inhibition of transcriptional activity incubated for 24 hrs by luciferase reporter gene assay
Format: cell-based
Conditions: not given

IC50 [µM]	Compound
5.48	COc1cc(C)ccc1Oc1ccc(NC(=O)c2cn(-c3ccccc3)nc2-c2ccc(C)cc2)cc1
8.47	COc1cccc(Oc2cc(N)cc(NC(=O)c3cn(-c4ccccc4)nc3-c3cccc(OC)c3)c2)c1
2.11	COc1cccc(-c2nn(-c3ccccc3)cc2C(=O)Nc2cccc(Oc3cccnc3)c2)c1
2.91	COc1cccc(-c2nn(-c3ccccc3)cc2C(=O)Nc2cc(N)cc(Oc3cccnc3)c2)c1
13.5	COc1cccc(Oc2cc(N)cc(NC(=O)c3cn(-c4ccccc4)nc3-c3ccccc3)c2)c1
9.95	COc1ccc(-c2nn(-c3ccccc3)cc2C(=O)Nc2ccc(Oc3ccc(C(C)C)cc3)cc2)cc1OC
10.4	COc1ccc(-c2nn(-c3ccccc3)cc2C(=O)Nc2ccc(Oc3ccc(C)cc3OC)cc2)cc1OC
9.48	COc1cc(C)ccc1Oc1ccc(NC(=O)c2cn(-c3ccccc3)nc2-c2ccccc2)cc1
8.42	COC(=O)c1cccc(Oc2cc(N)cc(NC(=O)c3cn(-c4ccccc4)nc3-c3ccccc3)c2)c1
1.33	O=C(Nc1cccc(Oc2cccnc2)c1)c1cn(-c2ccccc2)nc1-c1ccccc1
6.75	O=C(Nc1cc(Oc2cccnc2)cc(C(F)(F)F)c1)c1cn(-c2ccccc2)nc1-c1ccccc1

Biological target: T2, Estrogen-related receptor gamma (Mus musculus) (UniProt P62509)
T2 sequence (whole entry): T1 sequence (P62509 whole entry)
Assay: Inverse agonist activity at Gal4-tagged mouse ERR-gamma LBD transfected in HEK293T cells co-expressing FR-luc assessed as inhibition of transcriptional activity at 10 uM incubated for 24 hrs by luciferase reporter gene assay
Format: cell-based
Conditions: not given

inhibition	Compound
inactive	COc1cccc(-c2nn(-c3ccccc3)cc2C(=O)Nc2cc(N)cc(OCCCN(C)C)c2)c1
inactive	COc1cccc(-c2nn(-c3ccccc3)cc2C(=O)Nc2cc(OCCN(C)C)cc(C(F)(F)F)c2)c1
inactive	Nc1cc(NC(=O)c2cn(-c3ccc(CO)cc3)nc2-c2ccccc2)cc(Oc2cccnc2)c1
inactive	CN(C)CCCOc1cc(NC(=O)c2cn(-c3ccccc3)nc2-c2ccccc2)cc(C(F)(F)F)c1
inactive	CN(C)CCOc1cc(NC(=O)c2cn(-c3ccccc3)nc2-c2ccccc2)cc(C(F)(F)F)c1
inactive	COc1cccc(-c2nn(-c3ccccc3)cc2C(=O)Nc2cc(OCCCN(C)C)cc(C(F)(F)F)c2)c1
inactive	Nc1cc(NC(=O)c2cn(-c3ccc(C(=O)O)cc3)nc2-c2ccccc2)cc(Oc2cccnc2)c1
inactive	CN(C)CCCOc1cc(N)cc(NC(=O)c2cn(-c3ccccc3)nc2-c2ccccc2)c1
inactive	COC(=O)c1ccc(-n2cc(C(=O)Nc3cc(N)cc(Oc4cccnc4)c3)c(-c3ccccc3)n2)cc1
inactive	COc1cccc(-c2nn(-c3ccccc3)cc2C(=O)Nc2cc(N)cc(OCCN(C)C)c2)c1
inactive	CCN(CC)C(=O)c1ccc(-n2cc(C(=O)Nc3cc(N)cc(Oc4cccnc4)c3)c(-c3ccccc3)n2)cc1

Same assay, conditions: filed as inverse agonist

Activity	Compound
Active	Cc1ccc(-c2nn(-c3ccccc3)cc2C(=O)Nc2ccc(Oc3ccc(C(C)C)cc3)cc2)cc1
